Measurements reported in patent publication US20190083462A1, “PREVENTION OF NSAID ENTEROPATHY WITH MICROBIOTA-DERIVED TRYPTOPHAN-METABOLITE” (THE TEXAS A&M UNIVERSITY SYSTEM, priority 2016, published 2019).

Experiments:
[1] = test system: fecal microbiota; assay: Inferred metagenome of the fecal microbiota (PICRUSt, SIMPER); type: in vivo, mice; conditions: for mean % abundance: day 7 feces
Procedure: Eight- to 10-week-old specific-pathogen-free C57BL/6J mice were purchased and allowed to acclimate for 2 weeks. Mice were fed standardized laboratory rodent diet and sterile water ad libitum. […] Mice were then rehoused on the basis of treatment group assignment, with 5 animals/group-cage. To induce NSAID enteropathy, mice in group 1 were gavaged once daily with indomethacin (5 mg/kg; for 7 days; Sigma Aldrich, St. Louis, Mo.) dissolved in dimethylysulfoxide (DMSO) (Sigma Aldrich, St. Louis, Mo.) and further diluted in phosphate buffered saline (PBS). […] Sigma Aldrich, St. Louis, Mo.) dissolved in sterile water warmed to 55° C. […] All mice were gavaged with equal volumes (200 μL) and equal concentrations of DMSO (0.001%). Feces were collected daily by placing individual animals in sterile plastic cups that were RNase- and DNase-free until they passed feces. The mice were immediately returned to their home cages and the feces immediately flash frozen at -80° C. All animals were euthanized via CO2 asphyxiation on day 8 (i.e., after 7 days of treatment). […] Life Technologies, Carlsbad, Calif.), homogenized, and prepared as a single cell suspension for flow cytometric analysis as previously described (Wang […]. Measuring bacterial load and immune responses in mice infected with Listeria monocytogenes. Journal of Visualized Experiments: JoVE 2011). The software Phylogenetic Investigation of Communities by Reconstruction of Unobserved States (PICRUSt) was used to predict the metagenome ([…], Knights […] Thurber R L, Knight R, et al. Predictive functional profiling of microbial communities using 16S rRNA marker gene sequences. Nature Biotechnology 2013; 31:814-21). Sequencing data were prepared as described above, but sequences were then clustered into OTUs using a closed-reference OTU picking protocol at the 97% sequencing identity level [http://qiime.org/scripts/pick_closed_reference_otus.html]. The resulting OTU table was normalized by the expected copy number(s) of the 16s rRNA gene in each OTU. PICRUSt was then used to predict the metagenome [https://picrust.github.io/picrust/tutorials/metagenome_prediction.html#metagenome-prediction-tutorial]. Each sample was rarefied to an even sequencing depth to adjust for uneven sequencing depth prior to further analysis. Differences in the metagenomes among the groups were investigated by visual assessment of clustering on PCA and by analysis of similarity (ANOSIM) calculated on Bray Curtis dissimilarity metric.

[2] = test system: C57BL/6J mice; assay: Fecal calprotectin ELISA; type: in vivo; conditions: feces, day 6 vs day 0; once daily gavage
Procedure: Eight- to 10-week-old specific-pathogen-free C57BL/6J mice were purchased and allowed to acclimate for 2 weeks. Mice were fed standardized laboratory rodent diet and sterile water ad libitum. […] Mice were then rehoused on the basis of treatment group assignment, with 5 animals/group-cage. To induce NSAID enteropathy, mice in group 1 were gavaged once daily with indomethacin (5 mg/kg; for 7 days; Sigma Aldrich, St. Louis, Mo.) dissolved in dimethylysulfoxide (DMSO) (Sigma Aldrich, St. Louis, Mo.) and further diluted in phosphate buffered saline (PBS). […] Sigma Aldrich, St. Louis, Mo.) dissolved in sterile water warmed to 55° C. […] All mice were gavaged with equal volumes (200 μL) and equal concentrations of DMSO (0.001%). Feces were collected daily by placing individual animals in sterile plastic cups that were RNase- and DNase-free until they passed feces. The mice were immediately returned to their home cages and the feces immediately flash frozen at -80° C. All animals were euthanized via CO2 asphyxiation on day 8 (i.e., after 7 days of treatment). […] Life Technologies, Carlsbad, Calif.), homogenized, and prepared as a single cell suspension for flow cytometric analysis as previously described (Wang […]. Measuring bacterial load and immune responses in mice infected with Listeria monocytogenes. Journal of Visualized Experiments: JoVE 2011). […]

[3] = Unclassified, Metabolism, Energy metabolism
[4] = Unclassified, Metabolism, Others

`COc1ccc2c(c1)c(CC(=O)O)c(C)n2C(=O)c1ccc(Cl)cc1` [NSAID, indomethacin] was tested, and the “vs. Control Direction” value ([1]; Alanine, aspartate and glutamate metabolism) was “↓”, the “vs. Control Direction” value ([1]; Amino Acid related enzymes) was “↑” and the “vs. Control Direction” value ([1]; Carbohydrate Metabolism, Citrate cycle (TCA cycle)) was “↑”. For the same molecule, the “vs. Control Direction” value ([1]; Cell Motility, Bacterial chemotaxis) was “↑”, the “vs. Control Direction” value ([1]; Cell Motility, Bacterial motility proteins) was “↑” and the “vs. Control Direction” value ([1]; Cell Motility, Flagellar assembly) was “↑”. For the same molecule, the “vs. Control Direction” value ([1]; Cellular Processes and Signalling, Sporulation) was “↑”, the mean % abundance ([1]; Cellular Processes, Cell Motility, Bacterial chemotaxis) was 1.30% and the mean % abundance ([1]; Cellular Processes, Cell Motility, Bacterial motility proteins) was 0.81%. The mean % abundance ([1]; Cellular Processes, Cell Motility, Flagellar assembly) was 0.91%, the “vs. Control Direction” value ([1]; Chaperones and folding catalysts) was “↓” and the “vs. Control Direction” value ([1]; Energy Metabolism, Carbon fixation pathways in prokaryotes) was “↓”. The “vs. Control Direction” value ([1]; Energy Metabolism, Oxidative phosphorylation) was “↑”, the mean % abundance ([1]; Environmental Information Processing, Membrane Transport, ABC transporters) was 1.71% and the mean % abundance ([1]; Environmental Information Processing, Membrane Transport, Phosphotransferase system (PTS)) was 0.18%. The mean % abundance ([1]; Environmental Information Processing, Membrane Transport, Transporters) was 3.82%, the mean % abundance ([1]; Environmental Information Processing, Signal Transduction, Two-component system) was 0.20% and the “vs. Control Direction” value ([1]; Folate biosynthesis) was “↑”. The mean % abundance ([1]; Genetic Information Processing, Folding, Sorting and Degradation, Chaperones and folding catalysts) was 0.61%, the mean % abundance ([1]; Genetic Information Processing, Replication and Repair DNA repair and recombination proteins) was 3.12% and the mean % abundance ([1]; Genetic Information Processing, Replication and Repair, DNA replication proteins) was 0.50%. For the same molecule, the mean % abundance ([1]; Genetic Information Processing, Replication and Repair, Homologous recombination) was 2.12%, the mean % abundance ([1]; Genetic Information Processing, Transcription, Transcription factors) was 0.31% and the mean % abundance ([1]; Genetic Information Processing, Translation Ribosome Biogenesis) was 0.70%. The mean % abundance ([1]; Genetic Information Processing, Translation, Ribosome) was 2.94%, the “vs. Control Direction” value ([1]; Lipopolysaccharide biosynthesis) was “↑” and the “vs. Control Direction” value ([1]; Lipopolysaccharide biosynthesis proteins) was “↑”. The “vs. Control Direction” value ([1]; Membrane Transport, ABC transporters) was “↓”, the “vs. Control Direction” value ([1]; Membrane Transport, Phosphotransferase system (PTS)) was “↓” and the “vs. Control Direction” value ([1]; Membrane Transport, Transporters) was “↓”. The “vs. Control Direction” value ([1]; Membrane and intracellular structural molecules) was “↓”, the mean % abundance ([1]; Metabolism, Amino Acid Metabolism, Alanine, aspartate and glutamate metabolism) was 1.14% and the mean % abundance ([1]; Metabolism, Amino Acid Metabolism, Amino Acid related enzymes) was 1.65%. For the same molecule, the mean % abundance ([1]; Metabolism, Carbohydrate Metabolism, Citrate cycle (TCA cycle)) was 1.25%, the mean % abundance ([1]; Metabolism, Energy Metabolism, Carbon fixation pathways in prokaryotes) was 0.40% and the mean % abundance ([1]; Metabolism, Energy Metabolism, Oxidative phosphorylation) was 1.65%. The mean % abundance ([1]; Metabolism, Glycan Biosynthesis and Metabolism, Lipopolysaccharide biosynthesis proteins) was 1.48%, the mean % abundance ([1]; Metabolism, Glycan Biosynthesis and Metabolism, Lipopolysaccharide biosynthesis) was 1.55% and the mean % abundance ([1]; Metabolism, Glycan Biosynthesis and Metabolism, Other glycan degradation) was 1.27%. The mean % abundance ([1]; Metabolism, Metabolism of Cofactors and Vitamins, Folate biosynthesis) was 1.66%, the mean % abundance ([1]; Metabolism, Metabolism of Cofactors and Vitamins, One carbon pool by folate) was 0.49% and the mean % abundance ([1]; Metabolism, Metabolism of Cofactors and Vitamins, Porphyrin and chlorophyll metabolism) was 2.42%. For the same molecule, the mean % abundance ([1]; Metabolism, Nucleotide Metabolism, Purine metabolism) was 0.90%, the mean % abundance ([1]; Metabolism, Nucleotide Metabolism, Pyrimidine metabolism) was 2.24% and the “vs. Control Direction” value ([1]; Nucleotide Metabolism, Purine metabolism) was “↓”. For the same molecule, the “vs. Control Direction” value ([1]; Nucleotide Metabolism, Pyrimidine metabolism) was “↑”, the “vs. Control Direction” value ([1]; One carbon pool by folate) was “↓” and the “vs. Control Direction” value ([1]; Other glycan degradation) was “↑”. The “vs. Control Direction” value ([1]; Pores ion channels) was “↑”, the “vs. Control Direction” value ([1]; Porphyrin and chlorophyll metabolism) was “↑” and the “vs. Control Direction” value ([1]; Replication and Repair DNA repair and recombination proteins) was “↑”. For the same molecule, the “vs. Control Direction” value ([1]; Replication and Repair, DNA replication proteins) was “↓”, the “vs. Control Direction” value ([1]; Replication and Repair, Homologous recombination) was “↑” and the “vs. Control Direction” value ([1]; Signal Transduction, Two-component system) was “↓”. The “vs. Control Direction” value ([1]; Transcription, Transcription factors) was “↓”, the “vs. Control Direction” value ([1]; Translation Ribosome Biogenesis) was “↓” and the “vs. Control Direction” value ([1]; Translation, Ribosome) was “↑”. The mean % abundance ([1]; Unclassified, Cellular Processes and Signaling, Pores ion channels) was 3.54%, the mean % abundance ([1]; Unclassified, Cellular Processes and Signalling, Membrane and intracellular structural molecules) was 0.17% and the mean % abundance ([1]; Unclassified, Cellular Processes and Signalling, Sporulation) was 1.00%. The “vs. Control Direction” value [1, 3] was “↑”, the mean % abundance [1, 3] was 1.25% and the “vs. Control Direction” value [1, 4] was “↑”. For the same molecule, the mean % abundance [1, 4] was 0.84% and the fecal calprotectin levels [2] was “significantly different from day 0 calprotectin”.
